Values after ≈ are worked out from the molar mass of the structure shown. Marks after values point to notes of the source that are not given here. Where a SMILES comes first, the peptide text is derived from it. Where no end group is shown, it is not given here. [ ]: non-standard residue; d: D form. Phe(ol) = N[C@H](CO)Cc1ccccc1; Aib = CC(C)(N)C(=O)O
How the values were obtained:
[1] = tested on: P. aeruginosa strain PAO1-LAC, ATCC 47085; settings: P. aeruginosa PAO1-LAC, ATCC 47085; 90 min incubation; average of 3 assays ± SD
From the text: (§1) The bacterial strains; Fusobacterium nucleatum ATCC 25586, Streptococcus mutans Ingbritt, Staphylococcus aureus (MSSA) ATCC 29213; Staphylococcus aureus (MRSA) ATCC 43300; Enterococcus faecalis ATCC 29212; Enterobacter aerogenes ATCC 13048; Pseudomonas aeruginosa strain PAO1-LAC, ATCC 47085; Klebsiella pneumoniae ATCC 13883; Acinetobacter baumannii strain 2208, ATCC 19606; Escherichia coli ATCC 25922 lyophilised or glycerol stocks were obtained from the culture collection of the Oral Health Cooperative Research Centre, The Melbourne Dental School, University of Melbourne, Australia. These strains were selected for this study as they are widely used in antimicrobial studies and are considered to be important pathogens and major targets for antibiotic resistant studies. Bacteria were grown aerobically and maintained by passage at ambient temperature (E. coli, K. pneumoniae, A. baumannii and S. aureus strains) or at 37°C (P. aeruginosa, E. faecalis and E. aerogenes) on horse blood agar (10% v/v defibrinated horse blood, 4.4% w/v Oxoid Blood Agar Base No. 2). S. mutans and F. nucleatum were grown anaerobically (MK3 anaerobic workstation, Don Whitley Scientific Limited, England) and maintained by passage at 37°C on Todd Hewitt agar (3.6% w/v Oxoid Todd-Hewitt Broth, 1.5% w/v sucrose, 1.5% w/v BactoTM Agar, 0.8% w/v Oxoid Yeast Extract) or horse blood agar, respectively. For the antimicrobial peptide assays a 20 mL starter culture was produced by taking single colonies from blood or Todd Hewitt agar plates, respectively, to inoculate either: Luria Broth (LB; 1% w/v BactoTM Tryptone, 1% w/v NaCl, 0.5% w/v Oxoid Yeast Extract, pH 7.5, Thermo Scientific Pty, Ltd, Sydney, Australia) for bacteria; E. coli, K. pneumoniae, P. aeruginosa, A. baumannii, E. faecalis, E. aerogenes and S. aureus which were grown aerobically at 37°C, or Todd Hewitt broth (3.6% w/v Oxoid Todd-Hewitt Broth, 1.5% w/v sucrose, 0.8% w/v Oxoid Yeast 9 Extract) for S. mutans, or Brain Heart Infusion broth (BHI; 3.7% w/v Oxoid BHI, 0.05% w/v L-cysteine) for F. nucleatum which were both grown anaerobically at 37°C. After overnight incubation, 0.5–2.0 mL of the starter culture was used to inoculate the appropriate fresh broth (200 mL) and growth monitored at 650 nm using a spectrophotometer (model 275E; Perkin-Elmer, Sydney, Australia) with culture purity checked by microscopic examination and culture. Bacteria were harvested during late exponential growth phase and viability and bacteria/mL determined using a BacLight viability kit (Invitrogen, Sydney, Australia) and a Quanta SC-MPL flow cytometer (Beckman coulter Pty, Ltd, Sydney, Australia).
(§2) Antibacterial assays were undertaken to determinate the minimum inhibitory concentration (MIC), minimum bactericidal concentration (MBC) and minimum membrane disruptive concentration (MDC) of each of the antimicrobial peptides (AMP) and AMP analogues (S1 Table). For each bacterim a stock solution (2.5 × 10^6 cells/mL) in the respective media was made and an aliquot incubated with AMPs within 15 minutes from viable cell count and stock preparation. All AMPs were dissolved in DMSO and a 500 μM stock solution prepared by adding the respective media and serial dilutions (250–0.244 μM) of the AMP in media (100 μL/well) made just prior addition of bacteria. […] One hundred microliter aliquots of the bacterial stock solution (2.5 × 10^5 cells/well) were added to the AMP serial dilutions and incubated at 37°C for 90 min. Assay preparation and incubations were conducted in aerobic or anaerobic conditions dependent on the bacteria. Bacteria were also incubated in the absence of AMP to serve as a growth control for the assay. After the 90 minute incubation period the antimicrobial activity (MIC, MBC and MDC) was determined as follows;
(§3) For MIC the CLSI broth microdilution assay was followed as we have previously described.

E. aerogenes ATCC 13048 [2] = settings: E. aerogenes ATCC 13048; 90 min incubation; average of 3 assays ± SD
From the text: as §1, §2, §3

[3] = tested on: S. aureus (MRSA) ATCC 43300; settings: S. aureus (MRSA) ATCC 43300; 90 min incubation; average of 3 assays ± SD
From the text: as §1, §2, §3

E. faecalis ATCC 29212 [4] = settings: E. faecalis ATCC 29212; 90 min incubation; average of 3 assays ± SD
From the text: as §1, §2, §3

[5] = tested on: S. aureus (MSSA) ATCC 29213; settings: S. aureus (MSSA) ATCC 29213; 90 min incubation; average of 3 assays ± SD
From the text: as §1, §2, §3

E. coli ATCC 25922 [6] = settings: E. coli ATCC 25922; 90 min incubation; average of 3 assays ± SD
From the text: as §1, §2, §3

K. pneumoniae ATCC 13883 [7] = settings: K. pneumoniae ATCC 13883; 90 min incubation; average of 3 assays ± SD
From the text: as §1, §2, §3

[8] = tested on: A. baumannii strain 2208, ATCC 19606; settings: A. baumannii strain 2208, ATCC 19606; 90 min incubation; average of 3 assays ± SD
From the text: as §1, §2, §3

[9] = tested on: P. aeruginosa strain PAO1-LAC, ATCC 47085; settings: P. aeruginosa PAO1-LAC, ATCC 47085; 90 min incubation; average of 3 assays ± SD; remark: listed apart in the source
From the text: as §1, §2
(§4) For determination of MBC, the CLSI protocol was followed, with the modifications being that due to the rapid action of the AMPs the assay incubation time was shortened from 16–20 hours to 90 minutes.

E. aerogenes ATCC 13048 [10] = settings: E. aerogenes ATCC 13048; 90 min incubation; average of 3 assays ± SD; remark: listed apart in the source
From the text: as §1, §2, §4

[11] = tested on: S. aureus (MRSA) ATCC 43300; settings: S. aureus (MRSA) ATCC 43300; 90 min incubation; average of 3 assays ± SD; remark: listed apart in the source
From the text: as §1, §2, §4

E. faecalis ATCC 29212 [12] = settings: E. faecalis ATCC 29212; 90 min incubation; average of 3 assays ± SD; remark: listed apart in the source
From the text: as §1, §2, §4

[13] = tested on: S. aureus (MSSA) ATCC 29213; settings: S. aureus (MSSA) ATCC 29213; 90 min incubation; average of 3 assays ± SD; remark: listed apart in the source
From the text: as §1, §2, §4

E. coli ATCC 25922 [14] = settings: E. coli ATCC 25922; 90 min incubation; average of 3 assays ± SD; remark: listed apart in the source
From the text: as §1, §2, §4

K. pneumoniae ATCC 13883 [15] = settings: K. pneumoniae ATCC 13883; 90 min incubation; average of 3 assays ± SD; remark: listed apart in the source
From the text: as §1, §2, §4

[16] = tested on: A. baumannii strain 2208, ATCC 19606; settings: A. baumannii strain 2208, ATCC 19606; 90 min incubation; average of 3 assays ± SD; remark: listed apart in the source
From the text: as §1, §2, §4

E. faecalis ATCC 29212 [17] = assay: MDC, flow cytometry Syto9/PI membrane disruption assay; format: cell-based, Enterococcus faecalis; settings: 90 min incubation, average of 3 assays ± SD
From the text: The bacterial strains; Fusobacterium nucleatum ATCC 25586, Streptococcus mutans Ingbritt, Staphylococcus aureus (MSSA) ATCC 29213; Staphylococcus aureus (MRSA) ATCC 43300; Enterococcus faecalis ATCC 29212; Enterobacter aerogenes ATCC 13048; Pseudomonas aeruginosa strain PAO1-LAC, ATCC 47085; Klebsiella pneumoniae ATCC 13883; Acinetobacter baumannii strain 2208, ATCC 19606; Escherichia coli ATCC 25922 lyophilised or glycerol stocks were obtained from the culture collection of the Oral Health Cooperative Research Centre, The Melbourne Dental School, University of Melbourne, Australia. These strains were selected for this study as they are widely used in antimicrobial studies and are considered to be important pathogens and major targets for antibiotic resistant studies. […] After overnight incubation, 0.5–2.0 mL of the starter culture was used to inoculate the appropriate fresh broth (200 mL) and growth monitored at 650 nm using a spectrophotometer (model 275E; Perkin-Elmer, Sydney, Australia) with culture purity checked by microscopic examination and culture. Bacteria were harvested during late exponential growth phase and viability and bacteria/mL determined using a BacLight viability kit (Invitrogen, Sydney, Australia) and a Quanta SC-MPL flow cytometer (Beckman coulter Pty, Ltd, Sydney, Australia). […]

Question: For `CC(=O)NC(C)(C)C(=O)N1CCC[C@H]1C(=O)NC(C)(C)C(=O)N[C@@H](C)C(=O)NC(C)(C)C(=O)N[C@@H](C)C(=O)N[C@@H](CCC(N)=O)C(=O)NC(C)(C)C(=O)N[C@H](C(=O)NC(C)(C)C(=O)NCC(=O)N[C@@H](CC(C)C)C(=O)NC(C)(C)C(=O)N1CCC[C@H]1C(=O)N[C@H](C(=O)NC(C)(C)C(=O)NC(C)(C)C(=O)N[C@@H](CCC(=O)O)C(=O)N[C@@H](CCC(N)=O)C(=O)N[C@H](CO)Cc1ccccc1)C(C)C)C(C)C` [Alamethicin] (Ac-[Aib]P[Aib]A[Aib]AQ[Aib]V[Aib]GL[Aib]PV[Aib][Aib]EQ[Phe(ol)]; N-terminus assumed), which MIC [1] is on record?
Answer: >250 µM

Question: And the MIC (E. aerogenes ATCC 13048 [2])?
Answer: >250 µM

Question: And the MIC [3]?
Answer: 50.8 ± 3.5 µM (≈ 99.8 µg/mL)

Question: What about the MIC (E. faecalis ATCC 29212 [4]) of the same molecule?
Answer: 30.1±9.6^e μM

Question: What about the MIC [5] of the same molecule?
Answer: 31.4 ± 7.4 µM (≈ 61.7 µg/mL)

Question: What about the MIC (E. coli ATCC 25922 [6]) of the same molecule?
Answer: >250 µM

Question: And the MIC (K. pneumoniae ATCC 13883 [7])?
Answer: >250 µM

Question: And the MIC [8]?
Answer: 142.9±19.6^e μM

Question: And the MBC [9]?
Answer: >250 µM

Question: And the MBC (E. aerogenes ATCC 13048 [10])?
Answer: >250 µM

Question: What about the MBC [11] of the same molecule?
Answer: 59.2 ± 1.7 µM (≈ 116 µg/mL)

Question: What about the MBC (E. faecalis ATCC 29212 [12]) of the same molecule?
Answer: 48.1 ± 5.4 µM (≈ 94.5 µg/mL)

Question: And the MBC [13]?
Answer: 27.9 ± 6.9 µM (≈ 54.8 µg/mL)

Question: And the MBC (E. coli ATCC 25922 [14])?
Answer: >250 µM

Question: What about the MBC (K. pneumoniae ATCC 13883 [15]) of the same molecule?
Answer: >250 µM

Question: What about the MBC [16] of the same molecule?
Answer: >250 µM

Question: What about the MDC (E. faecalis ATCC 29212 [17]) of the same molecule?
Answer: 48.4 ± 10.9 µM

Question: For “GIGKFLHSAKKFGKAFVGEIMNS-NH2 [Magainin II]”, which MIC [1] is on record?
Answer: 26.1±1.2^e μM

Question: And the MIC (E. aerogenes ATCC 13048 [2])?
Answer: >250 µM

Question: And the MIC [3]?
Answer: >250 µM

Question: And the MIC (E. faecalis ATCC 29212 [4])?
Answer: >250 µM

Question: What about the MIC [5] of the same molecule?
Answer: >250 µM

Question: What about the MIC (E. coli ATCC 25922 [6]) of the same molecule?
Answer: 29.5±3.7^e μM

Question: What about the MIC (K. pneumoniae ATCC 13883 [7]) of the same molecule?
Answer: 132.2 ± 28.5 µM

Question: And the MIC [8]?
Answer: 15.1±1.53^e μM

Question: What about the MBC [9] of the same molecule?
Answer: 56.3 ± 4.2 µM

Question: And the MBC (E. aerogenes ATCC 13048 [10])?
Answer: >250 µM

Question: And the MBC [11]?
Answer: >250 µM

Question: And the MBC (E. faecalis ATCC 29212 [12])?
Answer: >250 µM

Question: What about the MBC [13] of the same molecule?
Answer: >250 µM

Question: What about the MBC (E. coli ATCC 25922 [14]) of the same molecule?
Answer: 48.1 ± 12.4 µM

Question: And the MBC (K. pneumoniae ATCC 13883 [15])?
Answer: 142.3 ± 19.5 µM

Question: What about the MBC [16] of the same molecule?
Answer: 20.0 ± 1.0 µM
